From patent publication US7087631B2, “Aryltetrazole compounds, and compositions thereof” (Inotek Pharmaceuticals Corporation, priority 2002, dated 2006) come the findings set out here.

SMILES strings stand for the structures.

For the assay, the target named is xanthine oxidase (Homo sapiens, UniProt P47989). Kind of assay: Xanthine oxidase inhibitory activity, 96 well plate, kinetic reading at 295 nm. Type of assay: biochemical.
Sequence of xanthine oxidase (P47989 whole entry, species assumed): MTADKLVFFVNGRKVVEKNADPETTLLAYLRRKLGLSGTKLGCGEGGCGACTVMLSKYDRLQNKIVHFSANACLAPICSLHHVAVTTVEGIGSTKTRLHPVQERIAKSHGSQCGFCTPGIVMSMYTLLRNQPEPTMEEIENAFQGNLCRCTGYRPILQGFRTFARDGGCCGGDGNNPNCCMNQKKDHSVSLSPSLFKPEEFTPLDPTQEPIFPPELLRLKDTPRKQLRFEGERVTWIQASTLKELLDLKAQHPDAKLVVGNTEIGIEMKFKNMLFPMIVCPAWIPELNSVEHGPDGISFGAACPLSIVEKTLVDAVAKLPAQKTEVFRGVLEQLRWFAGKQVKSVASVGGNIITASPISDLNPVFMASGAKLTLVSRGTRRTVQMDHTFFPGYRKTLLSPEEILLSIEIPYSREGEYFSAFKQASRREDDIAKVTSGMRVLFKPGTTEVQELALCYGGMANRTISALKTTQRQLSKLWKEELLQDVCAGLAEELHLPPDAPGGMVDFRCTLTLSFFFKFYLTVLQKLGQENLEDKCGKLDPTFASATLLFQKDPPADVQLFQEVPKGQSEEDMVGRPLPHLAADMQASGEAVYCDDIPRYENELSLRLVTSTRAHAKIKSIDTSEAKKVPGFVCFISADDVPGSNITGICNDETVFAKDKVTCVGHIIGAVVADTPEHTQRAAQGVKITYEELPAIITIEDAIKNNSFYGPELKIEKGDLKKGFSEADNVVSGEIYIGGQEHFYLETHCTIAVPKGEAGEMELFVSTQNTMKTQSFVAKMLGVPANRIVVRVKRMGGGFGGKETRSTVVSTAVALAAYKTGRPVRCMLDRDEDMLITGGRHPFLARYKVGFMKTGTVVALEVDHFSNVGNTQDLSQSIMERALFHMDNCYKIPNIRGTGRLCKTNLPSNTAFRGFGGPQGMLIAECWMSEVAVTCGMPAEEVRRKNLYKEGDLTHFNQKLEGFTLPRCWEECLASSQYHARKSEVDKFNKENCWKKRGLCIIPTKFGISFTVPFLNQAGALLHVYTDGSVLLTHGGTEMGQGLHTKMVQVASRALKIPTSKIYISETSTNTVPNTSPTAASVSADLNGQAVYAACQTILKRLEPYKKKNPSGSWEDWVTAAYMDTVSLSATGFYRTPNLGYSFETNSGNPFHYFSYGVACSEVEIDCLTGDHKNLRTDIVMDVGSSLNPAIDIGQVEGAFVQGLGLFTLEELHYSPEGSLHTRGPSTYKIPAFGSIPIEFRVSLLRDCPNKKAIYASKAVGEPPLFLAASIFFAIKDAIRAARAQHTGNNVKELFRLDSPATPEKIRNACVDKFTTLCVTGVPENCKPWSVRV

With `O=C(NCc1ccc2c(c1)OCO2)c1ccc(-c2nnn[nH]2)cc1` [HB], the “PERCENT XANTHINE OXIDASE INHIBITION” value (compound concentration 1 μM) came out at 25%.
The same measure, in the same setting: for `O=C(NCc1cccnc1)c1ccc(-c2nnn[nH]2)cc1` [HC] the value was 25%.
For the molecule `CCOc1ccc(-c2nnn[nH]2)cc1` [HD], for the setting “compound concentration 100 μM”, the “PERCENT XANTHINE OXIDASE INHIBITION” value is recorded as 60%.
On the same count and under the same terms, for `O=[N+]([O-])c1cc(-c2nnn[nH]2)ccc1Cl` [HF] the value was 80%; for `COc1cc(-c2nnn[nH]2)cc(OC)c1OC` [HG], 22%.
As for `c1cncc(-c2ccc(-c3nnn[nH]3)cc2)c1` [HI], the “PERCENT XANTHINE OXIDASE INHIBITION” value (compound concentration 1 μM) turned out to be 14%, the “PERCENT XANTHINE OXIDASE INHIBITION” value (compound concentration 10 μM) was 24% and the “PERCENT XANTHINE OXIDASE INHIBITION” value (compound concentration 100 μM) was determined as 70%.
Regarding `c1cncc(-c2cccc(-c3nnn[nH]3)c2)c1` [HJ], under “compound concentration 100 μM”, the “PERCENT XANTHINE OXIDASE INHIBITION” value came to 2%.
Consider `CC(C)(C)OC(=O)N1CCN(C(=O)c2ccc(-c3nnn[nH]3)cc2)CC1` [HK], for which the “PERCENT XANTHINE OXIDASE INHIBITION” value (compound concentration 100 μM) stood at 43%.
The same measure, in the same setting: as for `O=C(c1ccc(-c2nnn[nH]2)cc1)N1CCNCC1` [HL], the figure is 0%; as for `COc1ccc(-c2nnn[nH]2)c2ccccc12` [HM], 27%.
On to `O=C(OCc1cccnc1)c1ccc(-c2nnn[nH]2)cc1` [HO], for which the “PERCENT XANTHINE OXIDASE INHIBITION” value (compound concentration 0.05 μM) was 46%, the “PERCENT XANTHINE OXIDASE INHIBITION” value (compound concentration 0.1 μM) is on record as 95% and the “PERCENT XANTHINE OXIDASE INHIBITION” value (compound concentration 1 μM) was determined as 98%.
As for `O=C(OCc1ccco1)c1ccc(-c2nnn[nH]2)cc1` [HP], the “PERCENT XANTHINE OXIDASE INHIBITION” value (compound concentration 0.05 μM) was 41%, the “PERCENT XANTHINE OXIDASE INHIBITION” value (compound concentration 0.1 μM) stood at 91% and the “PERCENT XANTHINE OXIDASE INHIBITION” value (compound concentration 1 μM) was determined as 100%.
As for `O=C(OCCc1cccs1)c1ccc(-c2nnn[nH]2)cc1` [HQ], the “PERCENT XANTHINE OXIDASE INHIBITION” value (compound concentration 0.05 μM) is recorded as 53%, the “PERCENT XANTHINE OXIDASE INHIBITION” value (compound concentration 0.1 μM) is listed as 97% and the “PERCENT XANTHINE OXIDASE INHIBITION” value (compound concentration 1 μM) came to 95%.
The like results for `CCCOC(=O)c1ccc(-c2nnn[nH]2)cc1` [HR] were, in that order, 34%, 95% and 95%.
Regarding `O=C(NCC1CCCCC1)c1ccc(-c2nnn[nH]2)cc1` [HS], the “PERCENT XANTHINE OXIDASE INHIBITION” value by setting is: (compound concentration 0.03 μM) 8%; (compound concentration 0.1 μM) 16%; (compound concentration 1 μM) 55%.
The like results for `O=C(NC12CC3CC(CC(C3)C1)C2)c1ccc(-c2nnn[nH]2)cc1` [HT] were, in that order, 15%, 23% and 62%.
`O=S(=O)(NC12CC3CC(CC(C3)C1)C2)c1ccc(-c2nnn[nH]2)cc1` [HU]: where the note is “compound concentration 1 μM”, the “PERCENT XANTHINE OXIDASE INHIBITION” value is listed as 0%.
Take `O=S(=O)(NC1CCCCC1)c1ccc(-c2nnn[nH]2)cc1` [HV]: the “PERCENT XANTHINE OXIDASE INHIBITION” value (compound concentration 1 μM) was 0%.
In the case of `O=C(Nc1cccc(F)c1)c1ccc(-c2nnn[nH]2)cc1` [HW], the “PERCENT XANTHINE OXIDASE INHIBITION” value is, setting by setting: (compound concentration 0.03 μM) 32%; (compound concentration 0.1 μM) 62%; (compound concentration 1 μM) 89%.
The like results for `O=C(Nc1ccccc1F)c1ccc(-c2nnn[nH]2)cc1` [HY] were, in that order, 20%, 45% and 86%.
The like results for `O=C(Nc1cccc(I)c1)c1ccc(-c2nnn[nH]2)cc1` [HZ] were, in that order, 20%, 41% and 88%.
The like results for `O=C(O)c1cccc(NC(=O)c2ccc(-c3nnn[nH]3)cc2)c1` [IB] were, in that order, 38%, 64% and 94%.
For `O=C(O)Cc1cccc(NC(=O)c2ccc(-c3nnn[nH]3)cc2)c1` [ID], the “PERCENT XANTHINE OXIDASE INHIBITION” value runs as follows: (compound concentration 0.03 μM) 13%; (compound concentration 0.1 μM) 37%; (compound concentration 1 μM) 72%.
Consider `CCc1cccc(NC(=O)c2ccc(-c3nnn[nH]3)cc2)c1` [IE], for which the “PERCENT XANTHINE OXIDASE INHIBITION” value was 22% (compound concentration 0.03 μM), 38% (compound concentration 0.1 μM) and 87% (compound concentration 1 μM).
On to `CC(C)c1ccccc1NC(=O)c1ccc(-c2nnn[nH]2)cc1` [IF], for which the “PERCENT XANTHINE OXIDASE INHIBITION” value (compound concentration 1 μM) turned out to be 16%.
As to `CCCCc1ccc(NC(=O)c2ccc(-c3nnn[nH]3)cc2)cc1` [IH], the “PERCENT XANTHINE OXIDASE INHIBITION” value was 33% (compound concentration 0.03 μM), 63% (compound concentration 0.1 μM) and 95% (compound concentration 1 μM).
With `O=C(O)Cc1ccc(NC(=O)c2ccc(-c3nnn[nH]3)cc2)cc1` [II], the “PERCENT XANTHINE OXIDASE INHIBITION” value came to 20% (compound concentration 0.03 μM), 45% (compound concentration 0.1 μM) and 90% (compound concentration 1 μM).
The like results for `COc1ccc(NC(=O)c2ccc(-c3nnn[nH]3)cc2)cc1` [IJ] were, in that order, 27%, 58% and 93%.
The like results for `COc1ccccc1NC(=O)c1ccc(-c2nnn[nH]2)cc1` [IK] were, in that order, 9%, 17% and 55%.
The like results for `COc1cccc(NC(=O)c2ccc(-c3nnn[nH]3)cc2)c1` [IL] were, in that order, 21%, 46% and 86%.
With `CN(C(=O)c1ccc(-c2nnn[nH]2)cc1)c1ccccc1` [IM], the “PERCENT XANTHINE OXIDASE INHIBITION” value (compound concentration 1 μM) came to 0%.
As to `c1cc(-c2nnn[nH]2)ccc1OCC1CCCCC1` [IN], the “PERCENT XANTHINE OXIDASE INHIBITION” value reads like this: (compound concentration 0.1 μM) 21%; (compound concentration 1 μM) 68%. Also, where the note is “summary of the table”, the “xanthine oxidase activity (result in words)” value is reported as “inhibit xanthine oxidase activity”.
As for `O=C(Nc1ccccc1)c1cccc(-c2nnn[nH]2)c1` [IO], where the note is “compound concentration 1 μM”, the “PERCENT XANTHINE OXIDASE INHIBITION” value is reported as 0%.
With `CCCCOc1ccc(NC(=O)c2ccc(-c3nnn[nH]3)cc2)cc1` [IQ], the “PERCENT XANTHINE OXIDASE INHIBITION” value is, setting by setting: (compound concentration 0.03 μM) 36%; (compound concentration 0.1 μM) 33%; (compound concentration 1 μM) 64%.
As to `O=C(Nc1ccccc1)Nc1ccc(-c2nnn[nH]2)cc1` [IU], the “PERCENT XANTHINE OXIDASE INHIBITION” value by setting is: (compound concentration 0.03 μM) 3%; (compound concentration 0.1 μM) 9%; (compound concentration 1 μM) 42%.
In the case of `c1ccc(COc2ccc(-c3nnn[nH]3)cc2)cc1` [IV], the “PERCENT XANTHINE OXIDASE INHIBITION” value (compound concentration 0.1 μM) is 10% and the “PERCENT XANTHINE OXIDASE INHIBITION” value (compound concentration 1 μM) is listed as 35%.
The like results for `c1ccc(CCCOc2ccc(-c3nnn[nH]3)cc2)cc1` [IW] were, in that order, 9% and 22%.
For `O=C(Nc1ccc(Cl)cc1Cl)c1ccc(-c2nnn[nH]2)cc1` [IY], the “PERCENT XANTHINE OXIDASE INHIBITION” value is, setting by setting: (compound concentration 0.03 μM) 26%; (compound concentration 0.1 μM) 47%; (compound concentration 1 μM) 86%.
The like results for `O=C(Nc1ccc(F)cc1F)c1ccc(-c2nnn[nH]2)cc1` [IZ] were, in that order, 23%, 52% and 89%.
Turning to `O=C(NCc1ccccc1)c1ccc(-c2nnn[nH]2)cc1` [JA], the “PERCENT XANTHINE OXIDASE INHIBITION” value (compound concentration 0.1 μM) was found to be 0%.
As for `COc1cc(-c2nnn[nH]2)ccc1OCC(C)C` [JD], the “PERCENT XANTHINE OXIDASE INHIBITION” value reads like this: (compound concentration 0.1 μM) 0%; (compound concentration 1 μM) 28%.
The like results for `N#Cc1cc(-c2nnn[nH]2)ccc1C(=O)Nc1ccccc1` [JF] were, in that order, 6% and 34%.
In the case of `N#Cc1cc(-c2nnn[nH]2)ccc1C(=O)Nc1ccncc1` [JG], the “PERCENT XANTHINE OXIDASE INHIBITION” value (compound concentration 0.03 μM) turned out to be 33%, the “PERCENT XANTHINE OXIDASE INHIBITION” value (compound concentration 0.1 μM) is recorded as 61% and the “PERCENT XANTHINE OXIDASE INHIBITION” value (compound concentration 1 μM) amounted to 93%.
The like results for `N#Cc1cc(-c2nnn[nH]2)ccc1C(=O)Nc1cccnc1` [JH] were, in that order, 23%, 41% and 86%.
The like results for `N#Cc1cc(-c2nnn[nH]2)ccc1C(=O)Nc1nccs1` [JI] were, in that order, 19%, 30% and 79%.
Regarding `O=C(Nc1ccccc1)c1ccc(-c2nnn[nH]2)cc1Cl` [JJ], the “PERCENT XANTHINE OXIDASE INHIBITION” value (compound concentration 1 μM) amounted to 0%.
Same read-out and setting: as for `Cc1cc(C(=O)Nc2ccccc2)ccc1-c1nnn[nH]1` [JK], the figure is 0%.
As to `O=C(Nc1ccc(Cl)c(Cl)c1)c1ccc(-c2nnn[nH]2)cc1` [JL], the “PERCENT XANTHINE OXIDASE INHIBITION” value by setting is: (compound concentration 0.03 μM) 34%; (compound concentration 0.1 μM) 68%; (compound concentration 1 μM) 95%.
The like results for `CC(C)COc1ccc(-c2nnn[nH]2)cc1` [JP] were, in that order, 46%, 74% and 98%.
Consider `O=C(OCc1ccccc1I)c1ccc(-c2nnn[nH]2)cc1` [JQ], for which the “PERCENT XANTHINE OXIDASE INHIBITION” value (compound concentration 0.01 μM, 0.01 µM) is reported as 18%; the “PERCENT XANTHINE OXIDASE INHIBITION” value (compound concentration 0.1 μM, 0.1 µM) is given as 89%; the “PERCENT XANTHINE OXIDASE INHIBITION” value (compound concentration 1 μM) was 100%.
In the case of `COc1ccc2cc(-c3nnn[nH]3)ccc2c1` [JR], the “PERCENT XANTHINE OXIDASE INHIBITION” value (compound concentration 1 μM) was 14%, the “PERCENT XANTHINE OXIDASE INHIBITION” value (compound concentration 10 μM) is 56% and the “PERCENT XANTHINE OXIDASE INHIBITION” value (compound concentration 100 μM) worked out at 85%.
